In ChEMBL document CHEMBL1201862, “PubChem BioAssay data set” (2004):
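Each compound was tested at five concentrations against cells in 96-well plates for 48 hours. Abbreviation: GI50, concentration required for 50% inhibition of growth.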 Calls of active or inactive are those of the source. No stated cut-off is given here; in the data, active = GI50 up to about 1.1 µM and inactive = higher.

Tests used:
Assay in all cases: inhibition of tumour cell growth, NCI panel, 48 h
SK-MEL-2 = tested on: SK-MEL-2
MDA-N = tested on: MDA-N
A549 = tested on: A549
SR = tested on: SR
NCI-H23 = tested on: NCI-H23
SK-MEL-5 = tested on: SK-MEL-5
SK-OV-3 = tested on: SK-OV-3
TK-10 = tested on: TK-10
BT-549 = tested on: BT-549
HCT-15 = tested on: HCT-15
CCRF-CEM = tested on: CCRF-CEM
MOLT-4 = tested on: MOLT-4
SF-268 = tested on: SF-268
OVCAR-4 = tested on: OVCAR-4
SK-MEL-28 = tested on: SK-MEL-28
Malme-3M = tested on: Malme-3M
HCT-116 = tested on: HCT-116
SNB-19 = tested on: SNB-19
NCI-H226 = tested on: NCI-H226
NCI-H460 = tested on: NCI-H460

Compound | GI50 (SK-MEL-2) | GI50 (MDA-N) | GI50 (A549) | GI50 (SR) | GI50 (NCI-H23) | GI50 (SK-MEL-5) | GI50 (SK-OV-3) | GI50 (TK-10) | GI50 (BT-549) | GI50 (HCT-15) | GI50 (CCRF-CEM) | GI50 (MOLT-4) | GI50 (SF-268) | GI50 (OVCAR-4) | GI50 (SK-MEL-28) | GI50 (Malme-3M) | GI50 (HCT-116) | GI50 (SNB-19) | GI50 (NCI-H226) | GI50 (NCI-H460)
OC(CC(c1ccccc1)c1ccc(Cl)cc1)c1ccc(Cl)cc1 (stereo not given) | 24 µM (inactive) | 29 µM (inactive) | 37.8 µM (inactive) | 27.3 µM (inactive) | 29.7 µM (inactive) | 32 µM (inactive) | 36.1 µM (inactive) | 38 µM (inactive) | 56.6 µM (inactive) | 33.4 µM | 36.8 µM (inactive) | 34.2 µM (inactive) | 37.1 µM (inactive) | 31.3 µM (inactive) | 51.6 µM (inactive) | 25.5 µM (inactive) | 31.3 µM (inactive) | 45.2 µM (inactive) | 31.6 µM (inactive) | 30.1 µM (inactive)
O=C1C2=C(c3ccccc31)C(c1ccccc1)N1C(=O)CSC1=N2 (stereo not given) | 49 µM (inactive) | 17 µM (inactive) | 67.1 µM (inactive) | 26.4 µM (inactive) | 56.4 µM (inactive) | 36.9 µM (inactive) | > 70.6 µM (inactive) | > 75.3 µM (inactive) | 24.5 µM (inactive) | 40.3 µM | 48.4 µM (inactive) | 38.8 µM (inactive) | 58.1 µM (inactive) | 35.3 µM (inactive) | 63.5 µM (inactive) | 71.9 µM (inactive) | > 56.4 µM (inactive) | 55.7 µM (inactive) | 38.5 µM (inactive) | > 57.1 µM (inactive)
CC(C)(C)C1CCC2c3c([nH]c4ccccc34)C3C(=O)N(c4ccc([N+](=O)[O-])cc4)C(=O)C3C2C1 (stereo not given) | 11.8 µM (inactive) | 28.5 µM (inactive) | 10.8 µM (inactive) | 3.27 µM (inactive) | 10.3 µM (inactive) | 12.2 µM (inactive) | 35.1 µM (inactive) | 21.3 µM (inactive) | 16.2 µM (inactive) | 18.1 µM | 8.51 µM (inactive) | 5.28 µM (inactive) | 7.36 µM (inactive) | 5.62 µM (inactive) | 96.6 µM (inactive) | 20.5 µM (inactive) | 8.09 µM (inactive) | 22 µM (inactive) | 13.9 µM (inactive) | 13.6 µM (inactive)
COc1ccc(Cn2c3ccc([N+](=O)[O-])cc3c(=O)n2Cc2ccccn2)cc1 | > 100 µM (inactive) | 40.6 µM (inactive) | > 100 µM (inactive) | 63 µM (inactive) | 66.2 µM (inactive) | 24.9 µM (inactive) | > 100 µM (inactive) | > 100 µM (inactive) | > 100 µM (inactive) | > 100 µM | 62.5 µM (inactive) | 31.3 µM (inactive) | > 100 µM (inactive) | 56.1 µM (inactive) | > 100 µM (inactive) | 80.9 µM (inactive) | > 100 µM (inactive) | > 100 µM (inactive) | > 100 µM (inactive) | > 100 µM (inactive)
Fc1ccc(C(OCCN2CCC3CCC(C2)N3C/C=C/c2ccco2)c2ccc(F)cc2)cc1 (stereo not given) | 12.3 µM (inactive) | 12.4 µM (inactive) | 12.5 µM (inactive) | 2.47 µM (inactive) | 11.3 µM (inactive) | 4.22 µM (inactive) | 14.6 µM (inactive) | 6.93 µM (inactive) | 12.8 µM (inactive) | 5.09 µM | 0.0459 µM (active) | 4.78 µM (inactive) | 12.5 µM (inactive) | 10.2 µM (inactive) | 6.46 µM (inactive) | 9.57 µM (inactive) | 4.91 µM (inactive) | 15.7 µM (inactive) | 13.2 µM (inactive) | 7.11 µM (inactive)
CC1=NN(C(=O)CC(=O)Nc2cccc(Cl)c2)C(=O)C1/N=N\c1ccc(S(=O)(=O)c2ccc(/N=N/C3C(=O)N(C(=O)CC(=O)Nc4cccc(Cl)c4)N=C3C)cc2)cc1 (stereo not given) | > 100 µM (inactive) | > 100 µM (inactive) | > 100 µM (inactive) | > 100 µM (inactive) | > 100 µM (inactive) | 40.8 µM (inactive) | > 100 µM (inactive) | > 100 µM (inactive) | > 100 µM (inactive) | > 100 µM | > 100 µM (inactive) | > 100 µM (inactive) | > 100 µM (inactive) | > 100 µM (inactive) | > 100 µM (inactive) | > 100 µM (inactive) | > 100 µM (inactive) | > 100 µM (inactive) | > 100 µM (inactive) | > 100 µM (inactive)
